According to the supplement of paper PMC10307832:

Experiments:
Assay in all cases: relative viability (nuclei count vs DMSO), 5 days (fraction); higher = more cells survive
Tozasertib + OSI-027 = compound: Cc1cc(Nc2cc(N3CCN(C)CC3)nc(Sc3ccc(NC(=O)C4CC4)cc3)n2)n[nH]1 [Tozasertib] + COc1cccc2cc(-c3nc([C@H]4CC[C@H](C(=O)O)CC4)n4ncnc(N)c34)[nH]c12 [OSI-027] (partner 0.5 µM)
In short: (§1)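 Lung cancer cell lines, seeded in 1536-well plates, were treated the following day by pin tool with a single drug or with five library-drug doses (not always all listed) in √10 steps on top of a fixed anchor-drug dose. Cells were fixed and nuclei stained in one step after 5 days, and nuclei were counted. Relative viability is the nuclei count for treated wells divided by that for vehicle wells, reported as medians of duplicate plates.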

Tozasertib + Phenformin = compound: Cc1cc(Nc2cc(N3CCN(C)CC3)nc(Sc3ccc(NC(=O)C4CC4)cc3)n2)n[nH]1 [Tozasertib] + N=C(N)NC(=N)NCCc1ccccc1 [Phenformin] (partner 250 µM)
In short: as §1

Tozasertib + Decitabine = compound: Cc1cc(Nc2cc(N3CCN(C)CC3)nc(Sc3ccc(NC(=O)C4CC4)cc3)n2)n[nH]1 [Tozasertib] + Nc1ncn([C@H]2C[C@H](O)[C@@H](CO)O2)c(=O)n1 [Decitabine] (partner 2 µM)
In short: as §1

Tozasertib + Pemetrexed = compound: Cc1cc(Nc2cc(N3CCN(C)CC3)nc(Sc3ccc(NC(=O)C4CC4)cc3)n2)n[nH]1 [Tozasertib] + Nc1nc2[nH]cc(CCc3ccc(C(=O)N[C@@H](CCC(=O)O)C(=O)O)cc3)c2c(=O)[nH]1 [Pemetrexed] (partner 0.2 µM)
In short: as §1

Tozasertib + AZD7762 = compound: Cc1cc(Nc2cc(N3CCN(C)CC3)nc(Sc3ccc(NC(=O)C4CC4)cc3)n2)n[nH]1 [Tozasertib] + NC(=O)Nc1cc(-c2cccc(F)c2)sc1C(=O)N[C@H]1CCCNC1 [AZD7762] (partner 0.2 µM)
In short: as §1

Tozasertib + Palbociclib = compound: Cc1cc(Nc2cc(N3CCN(C)CC3)nc(Sc3ccc(NC(=O)C4CC4)cc3)n2)n[nH]1 [Tozasertib] + CC(=O)c1c(C)c2cnc(Nc3ccc(N4CCNCC4)cn3)nc2n(C2CCCC2)c1=O [Palbociclib] (partner 0.5 µM)
In short: as §1

Tozasertib + Dasatinib = compound: Cc1cc(Nc2cc(N3CCN(C)CC3)nc(Sc3ccc(NC(=O)C4CC4)cc3)n2)n[nH]1 [Tozasertib] + Cc1nc(Nc2ncc(C(=O)Nc3c(C)cccc3Cl)s2)cc(N2CCN(CCO)CC2)n1 [Dasatinib] (partner 0.075 µM)
In short: as §1

Tozasertib + Trametinib = compound: Cc1cc(Nc2cc(N3CCN(C)CC3)nc(Sc3ccc(NC(=O)C4CC4)cc3)n2)n[nH]1 [Tozasertib] + CC(=O)Nc1cccc(-n2c(=O)n(C3CC3)c(=O)c3c(Nc4ccc(I)cc4F)n(C)c(=O)c(C)c32)c1 [Trametinib] (partner 0.02 µM)
In short: as §1

Tozasertib + Vorinostat = compound: Cc1cc(Nc2cc(N3CCN(C)CC3)nc(Sc3ccc(NC(=O)C4CC4)cc3)n2)n[nH]1 [Tozasertib] + O=C(CCCCCCC(=O)Nc1ccccc1)NO [Vorinostat] (partner 1 µM)
In short: as §1

Tozasertib + Luminespib = compound: Cc1cc(Nc2cc(N3CCN(C)CC3)nc(Sc3ccc(NC(=O)C4CC4)cc3)n2)n[nH]1 [Tozasertib] + CCNC(=O)c1noc(-c2cc(C(C)C)c(O)cc2O)c1-c1ccc(CN2CCOCC2)cc1 [Luminespib] (partner 0.01 µM)
In short: as §1

Tozasertib + Olaparib = compound: Cc1cc(Nc2cc(N3CCN(C)CC3)nc(Sc3ccc(NC(=O)C4CC4)cc3)n2)n[nH]1 [Tozasertib] + O=C(c1cc(Cc2n[nH]c(=O)c3ccccc23)ccc1F)N1CCN(C(=O)C2CC2)CC1 [Olaparib] (partner 8 µM)
In short: as §1

Tozasertib = compound: Cc1cc(Nc2cc(N3CCN(C)CC3)nc(Sc3ccc(NC(=O)C4CC4)cc3)n2)n[nH]1 [Tozasertib]
In short: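 Five library-drug doses spaced by √10 were pinned onto vehicle-anchored 1536-well plates of lung cancer cell lines that had been kept overnight at 37 °C. Cells went 5 days without medium change, then were fixed, permeabilised and Hoechst-stained together, imaged at 4× and counted by MetaXpress. Viability is the ratio of treated-well to vehicle-well nuclei, taken as a median over plates. Plates required control CV below 25% and at least one doubling.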

Tozasertib + Lapatinib = compound: Cc1cc(Nc2cc(N3CCN(C)CC3)nc(Sc3ccc(NC(=O)C4CC4)cc3)n2)n[nH]1 [Tozasertib] + CS(=O)(=O)CCNCc1ccc(-c2ccc3ncnc(Nc4ccc(OCc5cccc(F)c5)c(Cl)c4)c3c2)o1 [Lapatinib] (partner 2 µM)
In short: as §1

Tozasertib + Bortezomib = compound: Cc1cc(Nc2cc(N3CCN(C)CC3)nc(Sc3ccc(NC(=O)C4CC4)cc3)n2)n[nH]1 [Tozasertib] + CC(C)C[C@H](NC(=O)[C@H](Cc1ccccc1)NC(=O)c1cnccn1)B(O)O [Bortezomib] (partner 0.002 µM)
In short: as §1

Tozasertib + Pictilisib = compound: Cc1cc(Nc2cc(N3CCN(C)CC3)nc(Sc3ccc(NC(=O)C4CC4)cc3)n2)n[nH]1 [Tozasertib] + CS(=O)(=O)N1CCN(Cc2cc3nc(-c4cccc5[nH]ncc45)nc(N4CCOCC4)c3s2)CC1 [Pictilisib] (partner 1 µM)
In short: as §1

Tozasertib + Foretinib = compound: Cc1cc(Nc2cc(N3CCN(C)CC3)nc(Sc3ccc(NC(=O)C4CC4)cc3)n2)n[nH]1 [Tozasertib] + COc1cc2c(Oc3ccc(NC(=O)C4(C(=O)Nc5ccc(F)cc5)CC4)cc3F)ccnc2cc1OCCCN1CCOCC1 [Foretinib] (partner 0.25 µM)
In short: as §1

Tozasertib + Alpelisib = compound: Cc1cc(Nc2cc(N3CCN(C)CC3)nc(Sc3ccc(NC(=O)C4CC4)cc3)n2)n[nH]1 [Tozasertib] + Cc1nc(NC(=O)N2CCC[C@H]2C(N)=O)sc1-c1ccnc(C(C)(C)C(F)(F)F)c1 [Alpelisib] (partner 2 µM)
In short: as §1

Tozasertib + Navitoclax = compound: Cc1cc(Nc2cc(N3CCN(C)CC3)nc(Sc3ccc(NC(=O)C4CC4)cc3)n2)n[nH]1 [Tozasertib] + CC1(C)CCC(c2ccc(Cl)cc2)=C(CN2CCN(c3ccc(C(=O)NS(=O)(=O)c4ccc(N[C@H](CCN5CCOCC5)CSc5ccccc5)c(S(=O)(=O)C(F)(F)F)c4)cc3)CC2)C1 [Navitoclax] (partner 0.5 µM)
In short: as §1

Tozasertib + Crizotinib = compound: Cc1cc(Nc2cc(N3CCN(C)CC3)nc(Sc3ccc(NC(=O)C4CC4)cc3)n2)n[nH]1 [Tozasertib] + C[C@@H](Oc1cc(-c2cnn(C3CCNCC3)c2)cnc1N)c1c(Cl)ccc(F)c1Cl [Crizotinib] (partner 1 µM)
In short: as §1

Tozasertib + Linsitinib = compound: Cc1cc(Nc2cc(N3CCN(C)CC3)nc(Sc3ccc(NC(=O)C4CC4)cc3)n2)n[nH]1 [Tozasertib] + C[C@]1(O)C[C@@H](c2nc(-c3ccc4ccc(-c5ccccc5)nc4c3)c3c(N)nccn32)C1 [Linsitinib] (partner 1 µM)
In short: as §1

With NCI-H522 the relative viability (Tozasertib + OSI-027; first compound 0.004 µM) was 0.773, the relative viability (Tozasertib + OSI-027; first compound 0.01265 µM) was 0.838 and the relative viability (Tozasertib + OSI-027; first compound 0.04 µM) was 0.783. The relative viability (Tozasertib + OSI-027; first compound 0.1265 µM) was 0.628, the relative viability (Tozasertib + Phenformin; first compound 0.004 µM) was 0.687 and the relative viability (Tozasertib + Phenformin; first compound 0.01265 µM) was 0.62. It also gave a relative viability (Tozasertib + Phenformin; first compound 0.04 µM) of 0.676, a relative viability (Tozasertib + Phenformin; first compound 0.1265 µM) of 0.593 and a relative viability (Tozasertib + Decitabine; first compound 0.004 µM) of 0.655. The relative viability (Tozasertib + Decitabine; first compound 0.01265 µM) was 0.746, the relative viability (Tozasertib + Decitabine; first compound 0.04 µM) was 0.647 and the relative viability (Tozasertib + Decitabine; first compound 0.1265 µM) was 0.622. The relative viability (Tozasertib + Pemetrexed; first compound 0.004 µM) was 0.931, the relative viability (Tozasertib + Pemetrexed; first compound 0.01265 µM) was 1.16 and the relative viability (Tozasertib + Pemetrexed; first compound 0.04 µM) was 0.927. It also gave a relative viability (Tozasertib + Pemetrexed; first compound 0.1265 µM) of 0.837, a relative viability (Tozasertib + AZD7762; first compound 0.01265 µM) of 0.841 and a relative viability (Tozasertib + AZD7762; first compound 0.04 µM) of 0.772. It also gave a relative viability (Tozasertib + AZD7762; first compound 0.1265 µM) of 0.47, a relative viability (Tozasertib + Palbociclib; first compound 0.004 µM) of 1.03 and a relative viability (Tozasertib + Palbociclib; first compound 0.01265 µM) of 1.02. It also gave a relative viability (Tozasertib + Palbociclib; first compound 0.04 µM) of 1.06, a relative viability (Tozasertib + Palbociclib; first compound 0.1265 µM) of 0.749 and a relative viability (Tozasertib + Dasatinib; first compound 0.004 µM) of 0.836. It also gave a relative viability (Tozasertib + Dasatinib; first compound 0.01265 µM) of 1.12, a relative viability (Tozasertib + Dasatinib; first compound 0.04 µM) of 1.01 and a relative viability (Tozasertib + Dasatinib; first compound 0.1265 µM) of 0.725. For the same cell line, the relative viability (Tozasertib + Trametinib; first compound 0.004 µM) was 0.825, the relative viability (Tozasertib + Trametinib; first compound 0.04 µM) was 0.671 and the relative viability (Tozasertib + Trametinib; first compound 0.1265 µM) was 0.711. For the same cell line, the relative viability (Tozasertib + Vorinostat; first compound 0.004 µM) was 0.917, the relative viability (Tozasertib + Vorinostat; first compound 0.01265 µM) was 1.14 and the relative viability (Tozasertib + Vorinostat; first compound 0.04 µM) was 0.759. The relative viability (Tozasertib + Vorinostat; first compound 0.1265 µM) was 0.782, the relative viability (Tozasertib + Luminespib; first compound 0.004 µM) was 1.36 and the relative viability (Tozasertib + Luminespib; first compound 0.01265 µM) was 1.48. It also gave a relative viability (Tozasertib + Luminespib; first compound 0.04 µM) of 1, a relative viability (Tozasertib + Luminespib; first compound 0.1265 µM) of 0.896 and a relative viability (Tozasertib + Olaparib; first compound 0.004 µM) of 0.619. It also gave a relative viability (Tozasertib + Olaparib; first compound 0.04 µM) of 0.603, a relative viability (Tozasertib + Olaparib; first compound 0.1265 µM) of 0.531 and a relative viability (Tozasertib; 0.004 µM) of 1.12. The relative viability (Tozasertib; 0.01265 µM) was 1, the relative viability (Tozasertib; 0.04 µM) was 1.05 and the relative viability (Tozasertib; 0.1 µM, anchor plate) was 0.565. For the same cell line, the relative viability (Tozasertib; 0.1265 µM) was 0.671.

EBC-1 showed a relative viability (Tozasertib + Lapatinib; first compound 0.004 µM) of 0.237, a relative viability (Tozasertib + Lapatinib; first compound 0.01265 µM) of 0.213 and a relative viability (Tozasertib + Lapatinib; first compound 0.04 µM) of 0.209. For the same cell line, the relative viability (Tozasertib + Lapatinib; first compound 0.1265 µM) was 0.173, the relative viability (Tozasertib + Bortezomib; first compound 0.004 µM) was 0.692 and the relative viability (Tozasertib + Bortezomib; first compound 0.01265 µM) was 0.461. It also gave a relative viability (Tozasertib + Bortezomib; first compound 0.04 µM) of 0.532, a relative viability (Tozasertib + Bortezomib; first compound 0.1265 µM) of 0.367 and a relative viability (Tozasertib + Pictilisib; first compound 0.004 µM) of 0.429. It also gave a relative viability (Tozasertib + Pictilisib; first compound 0.01265 µM) of 0.333, a relative viability (Tozasertib + Pictilisib; first compound 0.04 µM) of 0.371 and a relative viability (Tozasertib + Pictilisib; first compound 0.1265 µM) of 0.39. It also gave a relative viability (Tozasertib + Foretinib; first compound 0.004 µM) of 0.111, a relative viability (Tozasertib + Foretinib; first compound 0.01265 µM) of 0.0987 and a relative viability (Tozasertib + Foretinib; first compound 0.04 µM) of 0.109. It also gave a relative viability (Tozasertib + Foretinib; first compound 0.1265 µM) of 0.105, a relative viability (Tozasertib + Alpelisib; first compound 0.004 µM) of 0.814 and a relative viability (Tozasertib + Alpelisib; first compound 0.01265 µM) of 0.801. It also gave a relative viability (Tozasertib + Alpelisib; first compound 0.1265 µM) of 0.578, a relative viability (Tozasertib + Navitoclax; first compound 0.004 µM) of 0.351 and a relative viability (Tozasertib + Navitoclax; first compound 0.01265 µM) of 0.329. The relative viability (Tozasertib + Navitoclax; first compound 0.04 µM) was 0.372, the relative viability (Tozasertib + Navitoclax; first compound 0.1265 µM) was 0.251 and the relative viability (Tozasertib + Crizotinib; first compound 0.004 µM) was 0.234. It also gave a relative viability (Tozasertib + Crizotinib; first compound 0.01265 µM) of 0.202, a relative viability (Tozasertib + Crizotinib; first compound 0.04 µM) of 0.198 and a relative viability (Tozasertib + Crizotinib; first compound 0.1265 µM) of 0.151. The relative viability (Tozasertib + Olaparib; first compound 0.004 µM) was 0.697, the relative viability (Tozasertib + Olaparib; first compound 0.01265 µM) was 0.724 and the relative viability (Tozasertib + Olaparib; first compound 0.04 µM) was 0.737. It also gave a relative viability (Tozasertib + Olaparib; first compound 0.1265 µM) of 0.608, a relative viability (Tozasertib + Linsitinib; first compound 0.004 µM) of 0.866 and a relative viability (Tozasertib + Linsitinib; first compound 0.01265 µM) of 0.841. The relative viability (Tozasertib + Linsitinib; first compound 0.04 µM) was 0.886, the relative viability (Tozasertib + Linsitinib; first compound 0.1265 µM) was 0.486 and the relative viability (Tozasertib; 0.004 µM) was 1.12. It also gave a relative viability (Tozasertib; 0.01265 µM) of 1.01, a relative viability (Tozasertib; 0.04 µM) of 1.01 and a relative viability (Tozasertib; 0.1265 µM) of 0.776.
